Assay results: ChEMBL document CHEMBL5661943, “ASAP - In vitro antiviral effect” (2024)
Values joined by “and” are separate entries in the source; they are usually repeats but may differ in a detail not shown here. Equal entries are not always repeated.

Experiments:
dengue virus type 2 [1] = assay: (§1) Functional immunofluorescence assay to measure dose dependent changes in antiviral-drug inhibitory efficacy against Dengue virus type 2 Thailand/16681/84 in Vero E6/TMPRSS2 cells. Cells are treated with antiviral candidates that are serially diluted, following infection, cells are fixed. EC50 is reported via analysis of immunofluorescence staining. The assay has been performed by Icahn School of Medicine at Mount Sinai.; assay type: organism-based, Chlorocebus sabaeus
Zika virus [2] = assay: EC50 is reported via analysis of immunofluorescence staining. The assay has been performed by Icahn School of Medicine at Mount Sinai.; assay type: functional, organism-based, Chlorocebus sabaeus, VeroE6/TMPRSS2; conditions: Baseline response 0 %, Maximum response 100 %, P-gp concentration 2 uM, P-gp inhibitor Elacidar
Zika virus [3] = assay: (§2) Functional CPE-based assay to measure dose dependent changes in antiviral-drug inhibitory efficacy against Zika virus MR766 in Vero E6 miRFP670 cells (cotreated with P-gp inhibitor, CP100356). Cells are treated with antiviral candidates that are serially diluted. EC50 is reported via analysis of MTS assay as a readout of CPE. The assay has been performed by KU Leuven.; assay type: organism-based, Chlorocebus sabaeus, Vero C1008; conditions: Zika virus, Vero C1008
dengue virus type 2 [4] = assay: as §1, with “cells (cotreated with P-gp inhibitor, Elacridar).” for “cells.”; assay type: organism-based, Chlorocebus sabaeus, VeroE6/TMPRSS2; conditions: for EC90: P-gp concentration 2 uM, P-gp inhibitor Elacidar
Zika virus [5] = assay: as §2, with “cells.” for “cells (cotreated with P-gp inhibitor, CP100356).”; assay type: organism-based, Chlorocebus sabaeus, Vero C1008; conditions: Zika virus
dengue virus type 2 [6] = assay: Functional assay to measure dose dependent changes in antiviral-drug inhibitory efficacy against Dengue virus type 2 New Guinea C in Vero E6 miRFP670 cells (cotreated with P-gp inhibitor, CP100356). Cells are treated with antiviral candidates that are serially diluted, following infection, cells are fixed. EC50 is reported via analysis of fluorescence intensity using high-content imager. The …; assay type: organism-based, Chlorocebus sabaeus, Vero C1008; conditions: for EC90: P-gp concentration 500 nM, P-gp inhibitor CP100356
dengue virus type 2 [7] = assay: Functional CPE-based assay to measure dose dependent changes in antiviral-drug inhibitory efficacy against Dengue virus type 2 New Guinea C in Huh7 cells. Cells are treated with antiviral candidates that are serially diluted. EC50 is reported via analysis of MTT/MTS assay as a readout of CPE. The assay has been performed by National Institute of Allergy and Infectious Diseases.; assay type: organism-based, Homo sapiens; conditions: Huh-7
Zika virus [8] = assay: as §1, with “Zika” for “Dengue”, “PRVABC59” for “type 2 Thailand/16681/84”; assay type: organism-based, Chlorocebus sabaeus; conditions: VeroE6/TMPRSS2

COc1cc(N[C@@H](C(=O)c2c[nH]c3ccc(OC(F)(F)F)cc23)c2ccc(Cl)cc2OC)cc(S(C)(=O)=O)c1 gave an EC50 (dengue virus type 2 [1]; VeroE6/TMPRSS2) of less than 5 nM, an EC90 (dengue virus type 2 [1]; VeroE6/TMPRSS2, Baseline response 0 %, Hill slope -0.076, Maximum measured 4.343 %, Maximum response 100 %, Minimum measured 1.659 %, R squared 0.062) of less than 5 nM and an EC90 (Zika virus [2]; EC90 CI (lower) 0.002 uM, EC90 CI (upper) 0.172 uM, Hill slope -0.792, Maximum measured 161.955 %, Minimum measured 5.205 %, R squared 0.677) of 4830 nM. For the same compound, the EC90 (Zika virus [2]; EC90 CI (lower) 0.029 uM, EC90 CI (upper) 0.11 uM, Hill slope -0.824, Maximum measured 111.518 %, Minimum measured 7.6 %, R squared 0.806) was greater than 10000 nM, the EC90 (Zika virus [2]; EC90 CI (lower) 0.389 uM, EC90 CI (upper) 1.092 uM, Hill slope -2.761, Maximum measured 123.481 %, Minimum measured 14.219 %, R squared 0.888) was 3200 nM and the EC90 (Zika virus [2]; Hill slope -12.116, Maximum measured 127.26 %, Minimum measured 45.283 %, R squared 0.53) was greater than 3330 nM. It also gave an EC90 (Zika virus [2]; Hill slope -12.74, Maximum measured 124.12 %, Minimum measured 2.277 %, R squared 0.501) of 3790 nM, an EC90 (Zika virus [2]; Hill slope -15.757, Maximum measured 117.305 %, Minimum measured 4.138 %, R squared 0.906) of 1100 nM and an EC90 (Zika virus [2]; Hill slope -17.776, Maximum measured 116.903 %, Minimum measured 2.275 %, R squared 0.837) of 3170 nM. It also gave an EC90 (Zika virus [2]; Hill slope -18.67, Maximum measured 119.05 %, Minimum measured 1.241 %, R squared 0.846) of 3280 nM, an EC50 (Zika virus [3]) of 726 nM and an EC90 (Zika virus [3]; Baseline response 0 %, Hill slope 17.55, Maximum measured 78.36 %, Maximum response 100 %, Minimum measured -4.751 %, P-gp concentration 500 nM, R squared 0.965, P-gp inhibitor CP100356) greater than 781 nM. The EC90 (dengue virus type 2 [4]; Baseline response 0 %, EC90 CI (lower) 0.626 uM, EC90 CI (upper) 1511.53 uM, Hill slope 3.662, Maximum measured 12.805 %, Maximum response 100 %, Minimum measured 0.049 %, R squared 0.652) was 9.27 µM, the EC90 (dengue virus type 2 [4]; Baseline response 0 %, EC90 CI (lower) […] uM, EC90 CI (upper) […] uM, Hill slope -1.863, Maximum measured 115.571 %, Maximum response 100 %, Minimum measured 6.648 %, R squared 0.785) was 0.061 µM and the EC90 (dengue virus type 2 [4]; Baseline response 0 %, Hill slope 1.613, Maximum measured 7.031 %, Maximum response 100 %, Minimum measured 0.609 %, R squared 0.305) was less than 0.005 µM. It also gave an EC90 (dengue virus type 2 [4]; Baseline response 0 %, Hill slope 2.619, Maximum measured 1.603 %, Maximum response 100 %, Minimum measured 0.015 %, R squared 0.655) of less than 0.005 µM, an EC90 (dengue virus type 2 [4]; Baseline response 0 %, Hill slope 2.624, Maximum measured 9.128 %, Maximum response 100 %, Minimum measured 0.482 %, R squared 0.941) of less than 0.005 µM and an EC90 (dengue virus type 2 [4]; Baseline response 0 %, Hill slope -0.067, Maximum measured 1.374 %, Maximum response 100 %, Minimum measured 0.665 %, R squared 0.06) of less than 0.005 µM. The EC90 (dengue virus type 2 [4]; Baseline response 0 %, Hill slope -0.101, Maximum measured 7.568 %, Maximum response 100 %, Minimum measured 3.136 %, R squared 0.228) was less than 0.005 µM, the EC90 (dengue virus type 2 [4]; Dengue virus, VeroE6/TMPRSS2, Maximum measured 1.671 %, Minimum measured 0.643 %) was less than 0.005 µM and the EC50 (dengue virus type 2 [4]; veroe6/tmprss2) was < 5 nM and 19 nM. For the same compound, the EC90 (Zika virus [5]; Vero C1008, Baseline response 0 %, Hill slope 9.978, Maximum measured 3.488 %, Maximum response 100 %, Minimum measured -3.611 %, R squared 0.038) was greater than 50000 nM, the EC90 (Zika virus [5]; Vero C1008, Baseline response 0 %, Hill slope 52.791, Maximum measured 104.354 %, Maximum response 100 %, Minimum measured 0.394 %, R squared 0.996) was 452 nM and the EC90 (Zika virus [5]; Vero C1008, Baseline response 0 %, Hill slope -0.752, Maximum measured 14.519 %, Maximum response 100 %, Minimum measured -4.788 %, R squared 0.067) was less than 391 nM. For the same compound, the EC90 (Zika virus [5]; Vero C1008, Baseline response 0 %, Hill slope -0.757, Maximum measured 74.834 %, Maximum response 100 %, Minimum measured -5.889 %, R squared 0.129) was less than 391 nM, the EC90 (Zika virus [5]; Vero C1008, Baseline response 0 %, Hill slope -0.835, Maximum measured 99.922 %, Maximum response 100 %, Minimum measured -10.847 %, R squared 0.106) was less than 391 nM and the EC90 (Zika virus [5]; Vero C1008, Maximum measured 8.337 %, Minimum measured -6.427 %) was greater than 50000 nM. For the same compound, the EC90 (Zika virus [5]; Vero C1008, Baseline response 0 %, EC90 CI (lower) 10.077 uM, EC90 CI (upper) 13.839 uM, Hill slope 6.588, Maximum measured 92.835 %, Maximum response 100 %, Minimum measured -3.07 %, R squared 0.987) was 11800 nM, the EC90 (dengue virus type 2 [6]; Baseline response 0 %, Hill slope 0.131, Maximum measured 1.754 %, Maximum response 100 %, Minimum measured 0.009 %, R squared 0.032) was less than 391 nM and the EC90 (dengue virus type 2 [6]; Baseline response 0 %, Hill slope 0.182, Maximum measured 0.608 %, Maximum response 100 %, Minimum measured 0.03 %, R squared 0.035) was less than 391 nM. For the same compound, the EC90 (dengue virus type 2 [6]; Baseline response 0 %, Hill slope 0.299, Maximum measured 0.369 %, Maximum response 100 %, Minimum measured 0.02 %, R squared 0.601) was less than 391 nM, the EC90 (dengue virus type 2 [6]; Baseline response 0 %, Hill slope 0.306, Maximum measured 1.238 %, Maximum response 100 %, Minimum measured 0.01 %, R squared 0.111) was less than 391 nM and the EC90 (dengue virus type 2 [6]; Baseline response 0 %, Hill slope 1.135, Maximum measured 0.49 %, Maximum response 100 %, Minimum measured 0.132 %, R squared 0.538) was less than 391 nM. For the same compound, the EC50 (dengue virus type 2 [6]; Dengue virus, Vero C1008) was less than 391 nM, the EC90 (dengue virus type 2 [6]; Dengue virus, Vero C1008, Maximum measured 0.33 %, Minimum measured 0.072 %) was less than 391 nM and the EC90 (dengue virus type 2 [6]; Dengue virus, Vero C1008, Baseline response 0 %, Hill slope 0.447, Maximum measured 0.846 %, Maximum response 100 %, Minimum measured 0.033 %, R squared 0.302) was less than 391 nM. It also gave an EC50 (dengue virus type 2 [7]) of less than 10 nM, an EC50 (Zika virus [8]) of 546 nM and an EC90 (Zika virus [8]) of 2790 nM.
